# Laboratory results: patent publication US20260242776A1, “Modification of tRNA T-Stem for Enhancing N-Methyl Amino Acid Incorporation” (priority 2019, published 2026)
# *1 amine or outer side, *2 acyl side, *3 side chain or, on linkers, in order; H or OH if unused. Where no end group is shown, it is not given here. [ ]: non-standard residue; d: D form. The star is where a group is joined. MeYm = N-methyl-p-methoxyphenylalanine, COc1ccc(C[C@@H](C(=O)[*:2])N(C)[*:1])cc1; NMeY = CN[C@@H](Cc1ccc(O)cc1)C(=O)O; NMeF = CN[C@@H](Cc1ccccc1)C(=O)O; NMeNle = CCCC[C@H](NC)C(=O)O; NMeNva = CCC[C@H](NC)C(=O)O; NMeV = CN[C@H](C(=O)O)C(C)C; NMeS = CN[C@@H](CO)C(=O)O; NMeA = CN[C@@H](C)C(=O)O; Sar = CNCC(=O)O; For = O=C*
# Tested on: FIT system (reconstituted E. coli cell-free translation system)
# Experiment: In vitro translation in FIT system, peptide expression level by tricine-SDS-PAGE autoradiography
# Assay type: biochemical
# Conditions: mRNA14, 9 different ^MeAAs; control translation using 20 pAAs; FIG. 6d, 6e
substance,measurement,value
"P14: 32-mer model peptide composed of 9 respectively different ^MeAAs and 14 pAAs, translated from mRNA14 (For-MKKK[NMeS]HM[Sar][NMeV]TE[NMeNle]S[NMeY][NMeA]QN[MeYm]GW[NMeNva]R[NMeF]PDYKDDDDK)",Expression efficiency relative to the control,34%
